Patent US8445509B2, “Fused heterocyclic derivatives and use thereof” (Takeda Pharmaceutical Company Limited, priority 2008, dated 2013)

Key:
[1] = tested on: MV-4-11 cells; assay: Antitumor test, MV-4-11 transplanted nude mouse; assay type: in vivo, nude mouse (BALB/c nu/nu); details: MV-4-11, dose 2 mg/kg, orally, 14 consecutive days
Protocol: (§1) Cancer cells were cultured in a culture medium containing 10% bovine fetal serum in an incubator at 37° C., 5% CO2. MKN-45 cells were treated with trypsin/EDTA and isolated. MKN-45 and MV-4-11 cells were washed with HBSS (HANK's Balanced Saline Solution). When MKN-45 cells were transplanted, they were adjusted with HBSS to a cell density of 1.2×10^8 cells/mL, and transplanted by subcutaneous injection of 0.05 mL of a mixed suspension (3×10^6 cells) of the cell suspension and the same amount of Matrigel into the abdomen of 6 or 7-week-old female nude mouse (BALB/c nu/nu, CLEA Japan, Inc.). When MV-4-11 cells were transplanted, they were adjusted with HESS to a cell density of 1.2×10^8 cells/mL, and transplanted by subcutaneous injection of 0.05 mL of a mixed suspension (3×10^6 cells) of the cell suspension and the same amount of Matrigel into the abdomen of 7-week-old female nude mouse (BALB/c nu/nu, CLEA Japan, Inc.). When the average tumor volume reached 100-250 mm^3, the mice were grouped, and various doses of test substance were orally administered for 14 consecutive days starting from the next day. The length of the major axis and the length of the minor axis of the tumor were measured over time and the tumor volume was calculated by tumor volume=major axis length×minor axis length×minor axis length×0.5. The ratio of an increase in the average tumor volume of the control group to an increase in the average tumor volume of the drug administration group was taken as the tumor growth rate (%) of the drug administration group. Table 5 showned MKN-45 tumor growth rate (%) and table 6 showned MV-4-11 tumor growth rate (%).

[2] = tested on: MKN-45 cells; assay: Antitumor test, MKN-45 transplanted nude mouse; assay type: in vivo, nude mouse (BALB/c nu/nu); details: MKN-45, dose 2 mg/kg, orally, 14 consecutive days
Protocol: as §1

## Cc1ccc(C(=O)Nc2ccc(Oc3ccc4nc(NC(=O)C5CC5)cn4c3)c(F)c2)c(=O)n1-c1ccc(F)cc1.Cl [Example 32, N-[4-({2-[(cyclopropylcarbonyl)amino]imidazo[1,2-a]pyridin-6-yl}oxy)-3-fluorophenyl]-1-(4-fluorophenyl)-6-methyl-2-oxo-1,2-dihydropyridine-3-carboxamide hydrochloride]
[1]
  tumor growth rate (%): <0%
[2]
  tumor growth rate (%): 14%
